Assay results: ChEMBL document CHEMBL1123652, “Optimization and in vivo evaluations of a series of small, potent, and specific renin inhibitors containing a novel Leu-Val replacement” (J Med Chem, 1987)
pIC50: −log10 of the molar value.

Assays:
Rattus norvegicus [1] = test: Percent radioactivity in excreta of rats 24 h following intravenous administration in feces; type: ADME, organism-based; settings: in vivo
Rattus norvegicus [2] = test: Percent radioactivity in excreta of rats 24 hr following intravenous administration in urine; type: ADME, organism-based; settings: in vivo
[3] = Percent of [3H]- histidine found in 24 hr urine samples after intraduodenal administration; type: ADME; settings: other
[4] = Percent of [3H]- histidine found in 24 hr urine samples after intravenous administration; type: ADME
[5] = Percent of compound found in 24 hr urine samples after intraduodenal administration; type: ADME; settings: read-out: Activity
[6] = Percent of compound found in 24 hr urine samples after, intravenous administration; type: ADME; settings: read-out: Activity
[7] = Percent of radiolabel found in 24 hr urine samples after intraduodenal administration; type: ADME; settings: other
[8] = Percent of radiolabel found in 24 hr urine samples after intravenous administration; type: ADME
Rattus norvegicus [9] = test: Percent radioactivity in excreta of rats 24 hr following intraduodenal administration of the compound in feces; type: ADME, organism-based; settings: in vivo, other
Rattus norvegicus [10] = test: Percent radioactivity in excreta of rats 24 hr following intraduodenal administration of the compound in urine; type: ADME, organism-based; settings: in vivo, other
Monkey [11] = test: Heart rate determined at dosage of 1.0 mg/kg in male cynomolgus monkey; type: functional, Cercopithecidae
Monkey [12] = test: Heart rate determined at dosage of 10 mg/kg in male cynomolgus monkey; type: functional, Cercopithecidae
Monkey [13] = test: Inhibition of Plasma renin activity was observed in male cynomolgus monkey at dose of 1.0 mg/kg; type: functional, Cercopithecidae
Monkey [14] = test: Inhibition of Plasma renin activity was observed in male cynomolgus monkey at dose of 10 mg/kg; type: functional, Cercopithecidae
Monkey [15] = test: Mean blood pressure was measured in salt depleted male cynomolgus monkey at dose of 1.0 mg/kg intravenously; type: functional, Cercopithecidae; settings: route intravenous
Monkey [16] = test: Mean blood pressure was measured in salt depleted male cynomolgus monkey at dose of 10 mg/kg intravenously; type: functional, Cercopithecidae; settings: route intravenous
Pepsin A (Sus scrofa) = Pepsin A (Sus scrofa) (UniProt P00791); test: Evaluated for the percentage of inhibition of porcine pepsin at E-5M concentration
Renin = target: T1, Renin (Homo sapiens, UniProt P00797); test: Evaluated in vitro for inhibitory potency against renin.
T1 sequence (P00797 whole entry): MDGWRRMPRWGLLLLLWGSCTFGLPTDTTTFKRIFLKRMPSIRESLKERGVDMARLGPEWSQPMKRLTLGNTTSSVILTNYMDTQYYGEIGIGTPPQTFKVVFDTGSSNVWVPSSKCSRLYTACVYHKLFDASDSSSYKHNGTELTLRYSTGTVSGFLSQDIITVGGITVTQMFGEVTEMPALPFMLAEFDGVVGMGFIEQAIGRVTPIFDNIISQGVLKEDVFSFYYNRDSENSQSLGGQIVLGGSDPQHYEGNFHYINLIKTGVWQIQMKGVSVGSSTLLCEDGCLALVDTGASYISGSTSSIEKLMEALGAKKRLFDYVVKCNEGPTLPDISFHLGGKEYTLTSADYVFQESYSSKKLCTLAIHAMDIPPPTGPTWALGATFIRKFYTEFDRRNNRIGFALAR

Cathepsin D (Bos taurus) = target: T2, Cathepsin D (Bos taurus) (UniProt P80209); test: Evaluated for the percentage of inhibition of bovine cathepsin D at E-5M concentration
T2 sequence (whole entry): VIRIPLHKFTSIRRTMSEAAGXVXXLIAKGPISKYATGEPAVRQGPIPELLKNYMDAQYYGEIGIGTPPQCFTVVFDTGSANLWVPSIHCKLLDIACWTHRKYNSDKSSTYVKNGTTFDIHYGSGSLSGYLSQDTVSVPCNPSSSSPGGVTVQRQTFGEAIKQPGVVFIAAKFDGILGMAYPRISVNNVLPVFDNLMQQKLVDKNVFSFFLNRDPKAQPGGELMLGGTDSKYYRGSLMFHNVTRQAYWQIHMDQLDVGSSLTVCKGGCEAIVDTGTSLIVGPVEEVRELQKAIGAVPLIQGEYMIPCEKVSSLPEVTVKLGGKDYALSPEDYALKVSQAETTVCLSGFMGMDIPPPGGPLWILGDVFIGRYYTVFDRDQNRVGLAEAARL

Chain of Pepsin A (Sus scrofa) (P00791 60-385 limits assumed): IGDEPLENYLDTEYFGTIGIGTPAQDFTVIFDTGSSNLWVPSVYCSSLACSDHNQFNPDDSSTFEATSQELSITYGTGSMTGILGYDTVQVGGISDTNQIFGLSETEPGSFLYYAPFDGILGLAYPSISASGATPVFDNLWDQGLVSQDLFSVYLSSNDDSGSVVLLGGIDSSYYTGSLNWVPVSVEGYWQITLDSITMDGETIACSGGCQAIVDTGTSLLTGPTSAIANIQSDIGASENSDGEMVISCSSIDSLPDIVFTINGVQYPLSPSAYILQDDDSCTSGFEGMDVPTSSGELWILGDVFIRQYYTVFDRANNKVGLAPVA

- Activity (Rattus norvegicus [1]): 34.5%
- Activity (Rattus norvegicus [2]): 5%
- Activity [3]: 70%
- Activity [4]: 30%
- dose excreted at 24 h [5]: 30%
- dose excreted at 24 h [6]: 70%
- Activity [7]: 1%
- Activity [8]: 5%
- Activity (Rattus norvegicus [9]): 26.6%
- Activity (Rattus norvegicus [10]): 0.9%
- inhibition (Pepsin A (Sus scrofa)): 0%
- pIC50 (Renin): 8.60
- inhibition (Cathepsin D (Bos taurus)): 0%
SMILES: CC(C)(C)OC(=O)N[C@@H](Cc1ccccc1)C(=O)N[C@@H](Cc1c[nH]cn1)C(=O)N[C@@H](CC1CCCCC1)[C@@H](O)CS(=O)(=O)C1CCCCC1
- Heart rate (Monkey [11]): 140 beats min-1
- Heart rate (Monkey [12]): 197 beats min-1
- Activity (Monkey [13]): 35.3 ng/mL/h
- Activity (Monkey [14]): 107.7 ng/mL/h
- Mean blood pressure (Monkey [15]): 68 mmHg
- Mean blood pressure (Monkey [16]): 73 mmHg
